# According to patent US20060154990A1, “Use of MEK inhibitors in treating abnormal cell growth” (AGOURON PHARMACEUTICALS, INC., priority 2004, published 2006):
# Where two headings read alike, the source gives them in different places. Marks after values point to notes of the source that are not given here.
# Assays:
# HT-29 colon xenograft = assay: Antitumor activity in HT-29 tumor model; type: in vivo, mice; settings: oral 25 mg/kg once a day for 14 days
# [1] = test system: ZR-75-1 (human tumor of unknown phenotype); assay: Antitumor activity in ZR-75-1 tumor model; type: in vivo, mice; settings: ZR-75-1 (unknown phenotype), oral 25 mg/kg once a day for 14 days
# [2] = test system: ERK phosphorylation in colon 26 cells; assay: cells; settings: Mus musculus
# [3] = Metabolites of [14C] Compound 1 in cryopreserved hepatocytes; type: in vitro ADME, monkey; settings: [C-14] Compound 1 10 μM, 180 mins
# Procedure: Incubations were performed in hepatocytes for 3 hours and liver microsomes for 1.5 hours and were stopped with the addition of methanol. HPLC, in conjuction with ionspray 3D iontrap mass spectrometry, and simultaneous radioactive monitoring were used to detect and identify the resulting metabolites.
# Metabolite identification of radiolabeled Compound 1 was performed after incubation with rat, dog, monkey and human cryopreserved hepatocytes and liver microsomes. […] Besides glucuronidation, metabolites derived from other clearance pathways are also observed. For instance, M 15 (acid cleavage product) accounts for 11% of the total radioactivity in the human chromatogram.
# [4] = test system: ERK phosphorylation in MDCK cells; assay: cells; settings: Canis lupus familiaris, 1 h, read-out: Cellular IC50
# [5] = test system: Colo-205 human colon xenograft; assay: Antitumor activity against human colon xenograft Colo-205
# Procedure: A study was also carried out to explore the potential of an intermittent dosing strategy.
# pERK in BxPC-3 tumors = assay: Tumor pERK inhibition and PK-PD in BxPC-3 xenograft; type: in vivo, mice; settings: BxPC-3 tumor, 25 mg/kg oral
# Ki67 in tumor biopsies = assay: Immunohistochemical analysis of Ki67 in paired tumor biopsies; type: in vivo, human
# Procedure: The same biopsy specimens, as analyzed for pERK. staining described in Example 10, were also assessed for the amount of Ki67 detectable by immunohistochemistry. The Ki67 marker is considered an indicator of cell proliferation and thus reduction in Ki67 staining levels may be correlated with anti-tumor activity of therapeutic agents. Tissue sections from the paraffin-embedded biopsy tissues were pretreated with Heat-induced Epitope Retrieval (in this case, microwaving for 3 minutes) prior to the Ki67 detection procedure. The antibody used was the mouse monoclonal Ki67/MM1 manufactured by Novocastra Laboratories, Ltd. (catalog number: NCL-Ki67-MM1). […] Scoring of staining intensity was performed in same manner as for pERK assay, with H-scores generated for each section. For Ki67, only 1 section was assayed for each biopsy specimen.
# [6] = Colo-205, D19, 22, 25, 28, 31, 34, 37, 40, 43, 46, 18.8 mg/kg
# [7] = Colo-205, D19, 22, 25, 28, 31, 34, 37, 40, 43, 46, 37.5 mg/kg
# [8] = Colo-205, D19, 22, 25, 28, 31, 34, 37, 40, 43, 46, 75 mg/kg
# [9] = Colo-205, D19, 22, 25, 28, 31, 34, 37, 40, 43, 46, 150 mg/kg
# [10] = Colo-205, D19, 26, 33, 40, 47, 37.5 mg/kg
# [11] = Colo-205, D19, 26, 33, 40, 47, 75 mg/kg
# [12] = Colo-205, D19, 26, 33, 40, 47, 150 mg/kg
# [13] = Colo-205, D19, 26, 33, 40, 47, 300 mg/kg (toxic)
# [14] = Colo-205, D19-23, 26-30, 33-37, 40-44, 3.1 mg/kg
# [15] = Colo-205, D19-23, 26-30, 33-37, 40-44, 6.3 mg/kg
# [16] = Colo-205, D19-23, 26-30, 33-37, 40-44, 12.5 mg/kg
# [17] = Colo-205, D19-23, 26-30, 33-37, 40-44, 25 mg/kg
# [18] = Colo-205 colon, oral 25 mg/kg once a day for 14 days
smiles,measurement,setting,value
"O=C(NOC[C@H](O)CO)c1ccc(F)c(F)c1Nc1ccc(I)cc1F [Compound 1, N-[(R)-2,3-dihydroxy-propoxy]-3,4-difluoro-2-(2-fluoro-4-iodo-phenylamino)-benzamide]",CR (complete responder),HT-29 colon xenograft,0/10
same,PR (partial responder),HT-29 colon xenograft,0/10
same,Tumor Free,HT-29 colon xenograft,0/10
same,CR (complete responder),[1],7/8
same,PR (partial responder),[1],1/8
same,T − C,[1],24.2 days
same,Tumor Free,[1],0/8
same,IC50,"[2]; Colon 26, 1 h, read-out: Cellular IC50",0.34 nM
same,IC50,"[2]; Colon 26, read-out: IC50, phosphorylation of MAP kinase",0.33 nM
same,% ROI Monkey,[3],23.46%
same,IC50,[4],0.31 nM
same,CR (complete response),[5]; [6],0/6
same,Net Log10 kill,[5]; [6],0.1
same,Nonspecific Deaths,[5]; [6],0/6
same,PR (partial response),[5]; [6],0/6
same,T − C,[5]; [6],29.5 days
same,Tumor Free,[5]; [6],0/6
same,CR (complete response),[5]; [7],0/6
same,Net Log10 kill,[5]; [7],0.6
same,Nonspecific Deaths,[5]; [7],0/6
same,PR (partial response),[5]; [7],0/6
same,T − C,[5]; [7],37.7 days
same,Tumor Free,[5]; [7],0/6
same,CR (complete response),[5]; [8],1/6
same,Net Log10 kill,[5]; [8],0.8
same,Nonspecific Deaths,[5]; [8],0/6
same,PR (partial response),[5]; [8],2/6
same,T − C,[5]; [8],41.5 days
same,Tumor Free,[5]; [8],0/6
same,CR (complete response),[5]; [9],2/5
same,Net Log10 kill,[5]; [9],0.7
same,Nonspecific Deaths,[5]; [9],1/6^h
same,PR (partial response),[5]; [9],3/5
same,T − C,[5]; [9],39.9 days
same,Tumor Free,[5]; [9],0/5
same,CR (complete response),[5]; [10],0/6
same,Net Log10 kill,[5]; [10],−0.8
same,Nonspecific Deaths,[5]; [10],0/6
same,PR (partial response),[5]; [10],0/6
same,T − C,[5]; [10],13.1 days
same,Tumor Free,[5]; [10],0/6
same,CR (complete response),[5]; [11],0/6
same,Net Log10 kill,[5]; [11],−0.6
same,Nonspecific Deaths,[5]; [11],0/6
same,PR (partial response),[5]; [11],0/6
same,T − C,[5]; [11],17.0 days
same,Tumor Free,[5]; [11],0/6
same,CR (complete response),[5]; [12],1/6
same,Net Log10 kill,[5]; [12],0.4
same,Nonspecific Deaths,[5]; [12],0/6
same,PR (partial response),[5]; [12],1/6
same,T − C,[5]; [12],35.4 days
same,Tumor Free,[5]; [12],0/6
same,Net Log10 kill,"[5]; Colo-205, D19, 26, 33, 40, 47, 300 mg/kg",Toxic
same,CR (complete response),[5]; [13],2/3
same,Nonspecific Deaths,[5]; [13],3/6^i Toxic
same,PR (partial response),[5]; [13],1/3 Toxic
same,T − C,[5]; [13],60.3 Toxic days
same,Tumor Free,[5]; [13],1/3 Toxic
same,CR (complete response),[5]; [14],0/6
same,Net Log10 kill,[5]; [14],0.7
same,Nonspecific Deaths,[5]; [14],0/6
same,PR (partial response),[5]; [14],2/6
same,T − C,[5]; [14],37.8 days
same,Tumor Free,[5]; [14],0/6
same,CR (complete response),[5]; [15],1/6
same,Net Log10 kill,[5]; [15],1.1
same,Nonspecific Deaths,[5]; [15],0/6
same,PR (partial response),[5]; [15],4/6
same,T − C,[5]; [15],45.1 days
same,Tumor Free,[5]; [15],0/6
same,CR (complete response),[5]; [16],1/6
same,Net Log10 kill,[5]; [16],1.1
same,Nonspecific Deaths,[5]; [16],0/6
same,PR (partial response),[5]; [16],4/6
same,T − C,[5]; [16],45.9 days
same,Tumor Free,[5]; [16],0/6
same,CR (complete response),[5]; [17],6/6
same,Net Log10 kill,[5]; [17],1.8
same,Nonspecific Deaths,[5]; [17],0/6
same,PR (partial response),[5]; [17],0/6
same,T − C,[5]; [17],59.3 days
same,Tumor Free,[5]; [17],2/6
same,CR (complete response),"[5]; Colo-205, D19-46, 3.1 mg/kg",0/6
same,Net Log10 kill,"[5]; Colo-205, D19-46, 3.1 mg/kg",1.0
same,Nonspecific Deaths,"[5]; Colo-205, D19-46, 3.1 mg/kg",0/6
same,PR (partial response),"[5]; Colo-205, D19-46, 3.1 mg/kg",5/6
same,T − C,"[5]; Colo-205, D19-46, 3.1 mg/kg",45.5 days
same,Tumor Free,"[5]; Colo-205, D19-46, 3.1 mg/kg",0/6
same,CR (complete response),"[5]; Colo-205, D19-46, 6.3 mg/kg",2/6
same,Net Log10 kill,"[5]; Colo-205, D19-46, 6.3 mg/kg",1.1
same,Nonspecific Deaths,"[5]; Colo-205, D19-46, 6.3 mg/kg",0/6
same,PR (partial response),"[5]; Colo-205, D19-46, 6.3 mg/kg",4/6
same,T − C,"[5]; Colo-205, D19-46, 6.3 mg/kg",46.7 days
same,Tumor Free,"[5]; Colo-205, D19-46, 6.3 mg/kg",0/6
same,CR (complete response),"[5]; Colo-205, D19-46, 12.5 mg/kg",6/6
same,Net Log10 kill,"[5]; Colo-205, D19-46, 12.5 mg/kg",2.3
same,Nonspecific Deaths,"[5]; Colo-205, D19-46, 12.5 mg/kg",0/6
same,PR (partial response),"[5]; Colo-205, D19-46, 12.5 mg/kg",0/6
same,T − C,"[5]; Colo-205, D19-46, 12.5 mg/kg",70.1 days
same,Tumor Free,"[5]; Colo-205, D19-46, 12.5 mg/kg",0/6
same,CR (complete response),"[5]; Colo-205, D19-46, 25 mg/kg",5/6
same,Net Log10 kill,"[5]; Colo-205, D19-46, 25 mg/kg",2.0
same,Nonspecific Deaths,"[5]; Colo-205, D19-46, 25 mg/kg",0/6
same,PR (partial response),"[5]; Colo-205, D19-46, 25 mg/kg",1/6
same,T − C,"[5]; Colo-205, D19-46, 25 mg/kg",63.9 days
same,Tumor Free,"[5]; Colo-205, D19-46, 25 mg/kg",1/6
same,CR (complete responder),[5]; [18],4/10
same,PR (partial responder),[5]; [18],5/10
same,T − C,[5]; [18],10.8 days
same,Tumor Free,[5]; [18],3/10
same,inhibition of pERK expression 24 hours after dosing,pERK in BxPC-3 tumors,23%
same,average Ki67 decline,"Ki67 in tumor biopsies; baseline Ki67 scores above 20, 2 mg BID to 30 mg BID (N=13)",49%
same,average Ki67 decline,"Ki67 in tumor biopsies; baseline Ki67 scores above 20, all dose groups (N=18)",39%
same,average Ki67 decline,"Ki67 in tumor biopsies; tumor biopsies Day 15, 1 mg QD to 30 mg BID (N=22)",31%
same,average Ki67 decline,"Ki67 in tumor biopsies; tumor biopsies Day 15, 2 mg BID to 30 mg BID (N=19)",46%
